Data taken from the NIST ThermoML archive (doi:10.1021/je060170c).

Assay: xn = mol fraction of the nth substance listed
Details: 101 kPa, Liquid; for viscosity: Anton Paar Stabinger viscometer

COc1ccccc1 [anisole] + c1ccccc1
Details | mass density [kg/m3] | speed of sound [m/s] | viscosity [mPa·s]
288.15 K, x1 = 0.097 | 897.546 | 1356.8 | 0.747
288.15 K, x1 = 0.175 | 907.884 | 1364.5 | 0.777
288.15 K, x1 = 0.274 | 920.511 | 1374.4 | 0.817
288.15 K, x1 = 0.368 | 932.009 | 1383.8 | 0.856
288.15 K, x1 = 0.4971 | 947.045 | 1395.2 | 0.915
288.15 K, x1 = 0.623 | 960.925 | 1406.8 | 0.976
288.15 K, x1 = 0.72 | 971.118 | 1418.4 | 1.027
288.15 K, x1 = 0.8003 | 979.257 | 1425.2 | 1.072
288.15 K, x1 = 0.8895 | 988.004 | 1437.5 | 1.126
288.15 K, x1 = 1 | 998.441 | 1449.1 | 1.188
293.15 K, x1 = 0.097 | 890.999 | 1333 | 0.683
293.15 K, x1 = 0.175 | 901.497 | 1340.7 | 0.71
293.15 K, x1 = 0.274 | 914.322 | 1350.8 | 0.746
293.15 K, x1 = 0.368 | 926.005 | 1360.5 | 0.781
293.15 K, x1 = 0.4971 | 941.295 | 1373.9 | 0.833
293.15 K, x1 = 0.623 | 955.425 | 1387.2 | 0.889
293.15 K, x1 = 0.72 | 965.807 | 1397.5 | 0.936
293.15 K, x1 = 0.8003 | 974.102 | 1406.1 | 0.978
293.15 K, x1 = 0.8895 | 983.017 | 1415.9 | 1.027
293.15 K, x1 = 1 | 993.649 | 1428.5 | 1.084
298.15 K, x1 = 0.097 | 887.083 | 1309.3 | 0.638
298.15 K, x1 = 0.175 | 897.532 | 1317 | 0.664
298.15 K, x1 = 0.274 | 910.286 | 1327.1 | 0.697
298.15 K, x1 = 0.368 | 921.904 | 1337 | 0.73
298.15 K, x1 = 0.4971 | 937.104 | 1350.8 | 0.779
298.15 K, x1 = 0.623 | 951.156 | 1364.6 | 0.831
298.15 K, x1 = 0.72 | 961.483 | 1375.5 | 0.877
298.15 K, x1 = 0.8003 | 969.734 | 1384.6 | 0.918
298.15 K, x1 = 0.8895 | 978.597 | 1394.8 | 0.963
298.15 K, x1 = 1 | 989.15 | 1408 | 1.017
303.15 K, x1 = 0.097 | 881.745 | 1286.9 | 0.601
303.15 K, x1 = 0.175 | 892.244 | 1295.4 | 0.623
303.15 K, x1 = 0.274 | 905.059 | 1306.3 | 0.651
303.15 K, x1 = 0.368 | 916.731 | 1316.6 | 0.679
303.15 K, x1 = 0.4971 | 932.013 | 1330.9 | 0.72
303.15 K, x1 = 0.623 | 946.146 | 1345 | 0.767
303.15 K, x1 = 0.72 | 956.542 | 1355.8 | 0.808
303.15 K, x1 = 0.8003 | 964.845 | 1364.9 | 0.844
303.15 K, x1 = 0.8895 | 973.764 | 1375.1 | 0.883
303.15 K, x1 = 1 | 984.374 | 1387.7 | 0.931
